Laboratory results as given in ChEMBL document CHEMBL3639048, “2,5-methano- and 2,5-ethano-tetrahydrobenzazepine derivatives and use thereof to block reuptake of norepinephrine, dopamine, and serotonin” (2015).

Experiments:
Assay type in all cases: cell membranes
[1] = target: Sodium-dependent serotonin transporter (Homo sapiens, UniProt P31645); test: Radioligand Binding Assay: Compounds were dissolved in 100% DMSO at a concentration 100 times the desired highest assay concentration, serially diluted 1:3 in 100% DMSO, and 0.4 ul/well of each solution was dispensed to a Nunc polypropylene, round bottom, 384-well plate. […] 20 ul/well of a 2x membrane preparation (15 ug/ml in 50 mM Tris-Cl, pH 7.5, 120 mM NaCl, 5 mM KCl) and 20 ul/well of a 2x radioligand solution (520 pM [125I]RTI-55 in 50 mM Tris-Cl, pH 7.5, 120 mM NaCl, 5 mM KCl) were added to each well and the reaction incubated for 1 hour at room temperature. The contents of the assay plate were then transferred to a Millipore MultiscreenHTS GF/B filter plate which was pretreated with 0.5% PEI for at least one hour. The plate was vacuum filtered and washed with 7 washes of 100 uA/well 50 mM Tris-Cl, pH 7.5, 120 mM NaCl, 5 mM KCl chilled to 4 C.
Sequence of Sodium-dependent serotonin transporter (P31645 whole entry): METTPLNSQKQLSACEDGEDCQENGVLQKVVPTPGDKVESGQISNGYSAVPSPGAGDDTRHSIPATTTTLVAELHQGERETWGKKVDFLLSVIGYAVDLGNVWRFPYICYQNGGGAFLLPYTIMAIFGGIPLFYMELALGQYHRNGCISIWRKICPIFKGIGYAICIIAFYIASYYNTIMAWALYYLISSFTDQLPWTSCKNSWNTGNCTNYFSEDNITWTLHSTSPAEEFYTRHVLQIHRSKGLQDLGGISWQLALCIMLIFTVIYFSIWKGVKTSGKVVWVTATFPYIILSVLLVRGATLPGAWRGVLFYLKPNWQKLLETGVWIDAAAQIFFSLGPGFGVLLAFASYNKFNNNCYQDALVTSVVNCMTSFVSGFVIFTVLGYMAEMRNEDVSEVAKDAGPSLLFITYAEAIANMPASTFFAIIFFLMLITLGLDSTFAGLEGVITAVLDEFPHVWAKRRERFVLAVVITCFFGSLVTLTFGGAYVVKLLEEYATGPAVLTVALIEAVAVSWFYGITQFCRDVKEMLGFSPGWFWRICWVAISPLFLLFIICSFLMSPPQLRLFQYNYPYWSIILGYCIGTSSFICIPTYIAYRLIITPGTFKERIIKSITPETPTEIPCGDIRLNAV

[2] = target: Sodium-dependent noradrenaline transporter (Homo sapiens, UniProt P23975); test: Radioligand Binding Assay: Compounds were dissolved in 100% DMSO at a concentration 100 times the desired highest assay concentration, serially diluted 1:3 in 100% DMSO, and 1.0 ul/well of each solution was dispensed to a Nunc polypropylene, round bottom, 384-well plate. […] 50 ul/well of a 2x membrane preparation (0.4 mg/ml in 50 mM Tris-Cl, pH 7.5, 120 mM NaCl, 5 mM KCl) and 50 ul/well of a 2x radioligand solution (4 nM [3H]nisoxetine in 50 mM Tris-Cl, pH 7.5, 120 mM NaCl, 5 mM KCl) were added to the well and the reaction incubated for 1 hour at room temperature. The contents of the assay plate were then transferred to a Millipore MultiscreenHTS GF/B filter plate which was pretreated with 0.5% PEI for at least one hour. The plate was vacuum filtered and washed with 7 washes of 100 ul/well 50 mM Tris-Cl, pH 7.5, 120 mM NaCl, 5 mM KCl chilled to 4 C.
Sequence of Sodium-dependent noradrenaline transporter (P23975 whole entry): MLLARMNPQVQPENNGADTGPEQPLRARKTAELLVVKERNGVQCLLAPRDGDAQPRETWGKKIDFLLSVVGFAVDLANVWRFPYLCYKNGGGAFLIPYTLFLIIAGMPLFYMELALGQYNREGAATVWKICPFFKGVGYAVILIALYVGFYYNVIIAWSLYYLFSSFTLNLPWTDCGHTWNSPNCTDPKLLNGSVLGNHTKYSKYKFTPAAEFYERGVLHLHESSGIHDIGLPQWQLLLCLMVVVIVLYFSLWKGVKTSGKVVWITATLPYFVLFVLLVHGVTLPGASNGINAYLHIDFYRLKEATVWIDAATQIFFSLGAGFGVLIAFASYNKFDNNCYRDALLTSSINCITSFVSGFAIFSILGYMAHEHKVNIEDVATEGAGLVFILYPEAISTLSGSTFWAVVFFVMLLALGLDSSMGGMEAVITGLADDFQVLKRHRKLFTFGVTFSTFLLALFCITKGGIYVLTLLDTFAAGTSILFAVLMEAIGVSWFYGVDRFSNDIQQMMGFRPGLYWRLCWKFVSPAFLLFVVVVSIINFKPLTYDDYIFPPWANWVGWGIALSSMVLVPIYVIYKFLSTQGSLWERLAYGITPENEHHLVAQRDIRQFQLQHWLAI

[3] = target: Sodium-dependent dopamine transporter (Homo sapiens, UniProt Q01959); test: Radioligand Binding Assay: Compounds were dissolved in 100% DMSO at a concentration 100 times the desired highest assay concentration, serially diluted 1:3 in 100% DMSO, and 0.4 ul/well of each solution was dispensed to a Nunc polypropylene, round bottom, 384-well plate. […] 20 ul/well of a 2x membrane preparation (12.5 ug/ml in 30 mM sodium phosphate buffer, pH 7.9 at 4 C.) and 20 ul/well of a 2x radioligand solution (250 pM [125I]RTI-55 in 30 mM sodium phosphate buffer, pH 7.9 at 4 C.) were added to the well and the reaction incubated for 1 hour at room temperature. The contents of the assay plate were then transferred to a Millipore MultiscreenHTS GF/B filter plate which was pretreated with 0.5% PEI for at least one hour. The plate was vacuum-filtered and washed with 7 washes of 100 ul/well 50 mM Tris-Cl, pH 7.5, 120 mM NaCl, 5 mM KCl chilled to 4 C.
Sequence of Sodium-dependent dopamine transporter (Q01959 whole entry): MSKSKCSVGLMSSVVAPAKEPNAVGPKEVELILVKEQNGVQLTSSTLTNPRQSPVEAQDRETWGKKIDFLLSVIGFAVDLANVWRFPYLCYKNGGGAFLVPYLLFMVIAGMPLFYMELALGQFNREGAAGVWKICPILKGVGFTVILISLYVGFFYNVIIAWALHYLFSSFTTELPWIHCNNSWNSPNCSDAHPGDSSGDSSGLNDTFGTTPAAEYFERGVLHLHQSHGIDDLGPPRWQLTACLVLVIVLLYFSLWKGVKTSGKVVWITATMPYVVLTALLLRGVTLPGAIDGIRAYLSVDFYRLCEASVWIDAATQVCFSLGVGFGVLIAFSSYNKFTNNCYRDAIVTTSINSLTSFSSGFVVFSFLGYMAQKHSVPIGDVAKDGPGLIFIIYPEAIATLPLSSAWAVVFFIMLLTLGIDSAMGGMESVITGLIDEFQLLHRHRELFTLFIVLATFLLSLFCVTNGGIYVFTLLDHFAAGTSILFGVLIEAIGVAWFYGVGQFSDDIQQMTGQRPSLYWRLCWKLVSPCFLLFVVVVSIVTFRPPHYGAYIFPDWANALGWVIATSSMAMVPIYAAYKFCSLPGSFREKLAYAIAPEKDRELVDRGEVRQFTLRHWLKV

O=c1[nH]c2ccc(-c3ccc4c(c3)CN3CCC4(c4ccc(Cl)c(Cl)c4)CC3)cc2o1
IC50 [1]: 9.3 nM | IC50 [2]: 451 nM | IC50 [3]: 25.5 nM
